# Target: T1, human TLR7 (Homo sapiens, UniProt Q9NYK1)
# T1 construct: host or cells: HEK293 (HEK-Blue hTLR7)
# T1 sequence (Q9NYK1 27-1049): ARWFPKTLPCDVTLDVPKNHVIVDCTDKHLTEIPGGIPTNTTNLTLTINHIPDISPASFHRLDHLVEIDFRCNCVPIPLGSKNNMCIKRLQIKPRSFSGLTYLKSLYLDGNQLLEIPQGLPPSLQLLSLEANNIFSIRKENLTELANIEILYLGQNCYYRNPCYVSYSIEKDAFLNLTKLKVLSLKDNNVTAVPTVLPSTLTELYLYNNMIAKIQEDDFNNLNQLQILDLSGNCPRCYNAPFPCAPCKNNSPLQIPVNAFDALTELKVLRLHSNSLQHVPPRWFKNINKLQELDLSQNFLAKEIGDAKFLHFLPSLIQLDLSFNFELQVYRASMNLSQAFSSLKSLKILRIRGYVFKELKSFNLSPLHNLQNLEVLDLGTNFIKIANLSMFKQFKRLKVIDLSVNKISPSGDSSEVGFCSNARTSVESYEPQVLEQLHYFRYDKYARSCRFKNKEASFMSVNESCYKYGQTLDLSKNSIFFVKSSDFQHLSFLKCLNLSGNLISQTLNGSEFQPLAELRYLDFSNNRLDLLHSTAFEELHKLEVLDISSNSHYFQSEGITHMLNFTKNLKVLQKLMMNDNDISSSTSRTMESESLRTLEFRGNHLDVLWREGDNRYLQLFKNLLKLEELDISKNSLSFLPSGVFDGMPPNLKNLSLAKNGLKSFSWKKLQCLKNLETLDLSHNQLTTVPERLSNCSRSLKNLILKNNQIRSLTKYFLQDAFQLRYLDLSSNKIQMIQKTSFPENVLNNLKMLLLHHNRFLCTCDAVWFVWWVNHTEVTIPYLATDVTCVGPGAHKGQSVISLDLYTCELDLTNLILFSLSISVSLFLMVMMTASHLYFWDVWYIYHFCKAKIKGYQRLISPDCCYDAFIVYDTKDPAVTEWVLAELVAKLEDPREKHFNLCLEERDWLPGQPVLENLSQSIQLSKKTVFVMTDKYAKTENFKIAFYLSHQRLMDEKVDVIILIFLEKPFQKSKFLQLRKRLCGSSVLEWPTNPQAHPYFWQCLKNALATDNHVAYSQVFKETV
# Assay: HEK293-Blue-hTLR-7 cells assay
# Assay type: cell-based
# Conditions: HEK293-Blue-hTLR7 cells, R848 stimulation, 20 hrs, SEAP reporter; read-out: HEK/hTLR7 IC50
# Source text: A stable HEK293-Blue-hTLR-7 cell line was purchased from InvivoGen (Cat.#: hkb-htlr7, San Diego, California, USA). These cells were originally designed for studying the stimulation of human TLR7 by monitoring the activation of NF-κB. A SEAP (secreted embryonic alkaline phosphatase) reporter gene was placed under the control of the IFN-β minimal promoter fused to five NF-κB and AP-1-binding sites. The SEAP was induced by activating NF-κB and AP-1 via stimulating HEK-Blue hTLR7 cells with TLR7 ligands. Therefore the reporter expression was declined by TLR7 antagonist under the stimulation of a ligand, such as R848 (Resiquimod), for incubation of 20 hrs. The cell culture supernatant SEAP reporter activity was determined using QUANTI-Blue™ kit (Cat.#: rep-qb1, Invivogen, San Diego, Ca, USA) at a wavelength of 640 nm, a detection medium that turns purple or blue in the presence of alkaline phosphatase.
# HEK293-Blue-hTLR7 cells were incubated at a density of 250,000~450,000 cells/mL in a volume of 170 µL in a 96-well plate in Dulbecco’s Modified Eagle’s medium (DMEM) containing 4.5 g/L glucose, 50 U/mL penicillin, […], […], 2 mM L-glutamine, 10% (v/v) heat-inactivated fetal bovine serum with addition of 20 µL test compound in a serial dilution in the presence of final DMSO at 1% and 10 µL of 20uM R848 in above DMEM, perform incubation under 37° C. in a CO2 incubator for 20 hrs. Then 20 µL of the supernatant from each well was incubated with 180 µL Quanti-blue substrate solution at 37° C. for 2 hrs and the absorbance was read at 620 \~655 nm using a spectrophotometer. The signaling pathway that TLR7 activation leads to downstream NF-κB activation has been widely accepted, and therefore similar reporter assay was modified for evaluating TLR7 antagonist.
row,Compound,IC50 [nM]
1,"CCc1nc(N2CCN(Cc3cnc(N4CC5(CNCCO5)C4)nc3)CC2)ccc1-c1cc(C)c(=O)n(C)c1 [Example 1, 5-[2-ethyl-6-[4-[[2-(5-oxa-2,8-diazaspiro[3.5]nonan-2-yl)pyrimidin-5-yl]methyl]piperazin-1-yl]-3-pyridyl]-1,3-dimethyl-pyridin-2-one]",9
2,"CCc1nc(N2CCN(Cc3ccc(N4CC5(CNCCO5)C4)nc3)CC2)ccc1-c1cc(C)c(=O)n(C)c1 [Example 2, 5-[2-ethyl-6-[4-[[6-(5-oxa-2,8-diazaspiro[3.5]nonan-2-yl)-3 pyridyl]methyl]piperazin-1-yl]-3-pyridyl]-1,3-dimethyl-pyridin-2-one]",10
3,"CCc1nc(N2CCN(Cc3cnc(N4CC(C)(N)C4)nc3)CC2)ccc1-c1cc(C)c(=O)n(C)c1 [Example 3, 5-[6-[4-[[2-(3-amino-3-methyl-azetidin-1-yl)pyrimidin-5-yl]methyl]piperazin-1-yl]-2-ethyl-3-pyridyl]-1,3-dimethyl-pyridin-2-one]",14
4,"CCc1nc(N2CCN(Cc3cnc(N4CCOC[C@@H](N)C4)nc3)CC2)ccc1-c1cc(C)c(=O)n(C)c1 [Example 4, 5-[6-[4-[[2-[(6S)-6-amino-1,4-oxazepan-4-yl]pyrimidin-5-yl]methyl]piperazin-1-yl]-2-ethyl-3-pyridyl]-1,3-dimethyl-pyridin-2-one]",24
5,"Cc1cc(-c2ccc(N3CCN(Cc4cnc(N5CCNCC5)cn4)CC3)nc2C(C)C)cn(C)c1=O [Example 8, 5-[2-isopropyl-6-[4-[(5-piperazin-1-ylpyrazin-2-yl)methyl]piperazin-1-yl]-3-pyridyl]-1,3-dimethyl-pyridin-2-one]",5
6,"Cc1cc(-c2ccc(N3CCN(Cc4cnc(N5CC(C)(N)C5)nc4)CC3)nc2C(C)C)cn(C)c1=O [Example 10, 5-[6-[4-[[2-(3-amino-3-methyl-azetidin-1-yl)pyrimidin-5-yl]methyl]piperazin-1-yl]-2-isopropyl-3-pyridyl]-1,3-dimethyl-pyridin-2-one]",7
7,"Cc1cc(-c2ccc(N3CCN(Cc4ccc(N5CCNCC5)nc4)CC3)nc2C(C)C)cn(C)c1=O [Example 11, 5-[2-isopropyl-6-[4-[(6-piperazin-1-yl-3-pyridyl)methyl]piperazin-1-yl]-3-pyridyl]-1,3-dimethyl-pyridin-2-one]",8
8,"Cc1cc(-c2ccc(N3CCN(c4ccc5c(n4)CCNC5)CC3)nc2C(C)C)cn(C)c1=O [Example 15, 5-[2-isopropyl-6-[4-(5,6,7,8-tetrahydro-1,6-naphthyridin-2-yl)piperazin-1-yl]-3-pyridyl]-1,3-dimethyl-pyridin-2-one]",10
9,"Cc1cc(-c2ccc(N3CCN4CCN(c5ccc(N6CCNCC6)nc5)CC4C3)nc2C(C)C)cn(C)c1=O (stereo not shown) [Example 16, 5-[2-isopropyl-6-[8-(6-piperazin-1-yl-3-pyridyl)-3,4,6,7,9,9a-hexahydro-1H-pyrazino[1,2-a]pyrazin-2-yl]-3-pyridyl]-1,3-dimethyl-pyridin-2-one]",2

# More lines, in order of falling IC50, values ahead:
row,IC50 [nM],Compound
1,33,"Cc1cc(-c2ccc(N3CCN(Cc4ccc(N5CCNCC5)cc4)CC3)nc2C(F)F)cn(C)c1=O [Example 17, 5-[2-(difluoromethyl)-6-[4-[(4-piperazin-1-ylphenyl)methyl]piperazin-1-yl]-3-pyridyl]-1,3-dimethyl-pyridin-2-one]"
2,18,"Cc1cc(-c2ccc(N3CCN(Cc4cccc(N5CCNCC5)c4)CC3)nc2C(C)C)cn(C)c1=O [Example 14, 5-[2-isopropyl-6-[4-[(3-piperazin-1-ylphenyl)methyl]piperazin-1-yl]-3-pyridyl]-1,3-dimethyl-pyridin-2-one]"
3,12,"Cc1cc(-c2ccc(N3CCN(Cc4ccc(N5CCNCC5)cc4)CC3)nc2C(C)C)cn(C)c1=O [Example 13, 5-[2-isopropyl-6-[4-[(4-piperazin-1-ylphenyl)methyl]piperazin-1-yl]-3-pyridyl]-1,3-dimethyl-pyridin-2-one]"
4,8,"Cc1cc(-c2ccc(N3CCN(Cc4ncc(N5CCNCC5)cn4)CC3)nc2C(C)C)cn(C)c1=O [Example 12, 5-[2-isopropyl-6-[4-[(5-piperazin-1-ylpyrimidin-2-yl)methyl]piperazin-1-yl]-3-pyridyl]-1,3-dimethyl-pyridin-2-one]"
5,7,"Cc1cc(-c2ccc(N3CCN(Cc4cnc(N5CCNCC5)nc4)CC3)nc2C(C)C)cn(C)c1=O [Example 9, 5-[2-isopropyl-6-[4-[(2-piperazin-1-ylpyrimidin-5-yl)methyl]piperazin-1-yl]-3-pyridyl]-1,3-dimethyl-pyridin-2-one]"
6,6,"CCc1nc(N2CCN(Cc3ccc(N4CCNCC4)cc3)CC2)ccc1-c1cc(C)c(=O)n(C)c1 [Example 5, 5-[2-ethyl-6-[4-[(4-piperazin-1-ylphenyl)methyl]piperazin-1-yl]-3-pyridyl]-1,3-dimethyl-pyridin-2-one]"
7,5,"Cc1cc(-c2ccc(N3CCN(Cc4cnc(N5CC6(CNCCO6)C5)nc4)CC3)nc2C(C)C)cn(C)c1=O [Example 6, 5-[2-isopropyl-6-[4-[[2-(5-oxa-2,8-diazaspiro[3.5]nonan-2-yl)pyrimidin-5-yl]methyl]piperazin-1-yl]-3-pyridyl]-1,3-dimethyl-pyridin-2-one]"
8,5,"Cc1cc(-c2ccc(N3CCN(Cc4ccc(N5CCNCC5)cn4)CC3)nc2C(C)C)cn(C)c1=O [Example 7, 5-[2-isopropyl-6-[4-[(5-piperazin-1-yl-2-pyridyl)methyl]piperazin-1-yl]-3-pyridyl]-1,3-dimethyl-pyridin-2-one]"
9,5,"Cc1cc(-c2ccc(N3CCC(N4CCNCC4)CC3)nc2C(C)C)cn(C)c1=O [Example 18, 5-[2-isopropyl-6-(4-piperazin-1-yl-1-piperidyl)-3-pyridyl]-1,3-dimethyl-pyridin-2-one]"
10,3,"CCc1nc(N2CCN3CCN(c4cnc(N5CC6(CNCCO6)C5)nc4)CC3C2)ccc1-c1cc(C)c(=O)n(C)c1 (stereo not shown) [Example 19, 5-[2-ethyl-6-[2-[2-(5-oxa-2,8-diazaspiro[3.5]nonan-2-yl)pyrimidin-5-yl]-3,4,6,7,9,9a-hexahydro-1H-pyrazino[1,2-a]pyrazin-8-yl]-3-pyridyl]-1,3-dimethyl-pyridin-2-one]"

# From patent publication US20230295109A1, “PYRIDINONE COMPOUNDS FOR THE TREATMENT OF AUTOIMMUNE DISEASE” (F. Hoffmann-La Roche AG, priority 2020, published 2023)
